Experimental data: US20080076762A1, “Novel 4-Aminopiperidine Derivatives” (priority 2004, published 2008)

What was measured:
plasmepsin II = plasmepsin II (Plasmodium falciparum, UniProt Q8I6V3); assay: FRET assay for plasmepsin II; type: biochemical; conditions: pH 5, 37° C., substrate M-2120 1 μM
Procedure: (§1) The Fluorescence Resonance Energy Transfer (FRET) Assay for Plasmepsin II & IV and Human Cathepsin D & E:
(§2) The assay conditions are selected according to reports in the literature.
(§3) The FRET assay is performed in white polysorp plates (Fluoronunc, cat no 264 572) at 37° C. with a final volume of 80 μl.
(§4) The assay buffer is composed of 50 mM sodium acetate pH 5, 12.5% (w/v) glycerol, and 0.1% (w/v) BSA. The reaction consists of the following components: 60 μl assay buffer, 4 μl inhibitor (in DMSO), 8 μl substrate (M-2120 from BACHEM) to a final concentration of 1 μM and 8 μl enzyme (plasmepsin II, plasmepsin IV or cathepsin E to a final amount of 0.015 μg/ml per assay tube, cathepsin D to a final amount of 0.05 μg/ml per assay tube). The inhibitor is pre-diluted in DMSO in a dilution plate and six concentrations are prepared in duplicate. The compounds are usually tested at a final concentration varying from 1 nM to 100 μM. The substrate is diluted using 50% DMSO-50% assay buffer and the enzyme using assay buffer. The mixtures are then incubated for 3 h at 37° C. and the fluorescence is determined at 1 and 3 hour with a FluoroStar Galaxy from BMG using excitation and emission filters of 355 and 520 nm, respectively.
(§5) Auto-fluorescence of all the test substances is determined in assay buffer in the absence of substrate and enzyme and this value is subtracted from the final signal.
(§6) The inhibitory activity of the compounds is expressed as IC50, which represents the concentration of compound that inhibits 50% of the maximal (uninhibited) enzyme activity.

plasmepsin IV = plasmepsin IV (Plasmodium falciparum, UniProt Q8IM16); assay: FRET assay for plasmepsin IV; type: biochemical; conditions: pH 5, 37° C., substrate M-2120 1 μM
Procedure: as §1, §2, §3, §4, §5, §6

Chain of plasmepsin IV (Q8IM16 122-449): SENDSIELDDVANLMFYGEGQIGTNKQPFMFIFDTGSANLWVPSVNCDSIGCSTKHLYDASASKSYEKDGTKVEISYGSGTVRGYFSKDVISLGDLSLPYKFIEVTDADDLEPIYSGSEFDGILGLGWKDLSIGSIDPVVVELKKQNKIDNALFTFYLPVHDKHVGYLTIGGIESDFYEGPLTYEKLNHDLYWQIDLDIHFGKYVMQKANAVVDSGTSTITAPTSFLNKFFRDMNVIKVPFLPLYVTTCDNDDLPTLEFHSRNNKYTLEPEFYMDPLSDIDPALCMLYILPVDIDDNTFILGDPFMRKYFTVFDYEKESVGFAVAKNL
Chain of plasmepsin II (Q8I6V3 125-453): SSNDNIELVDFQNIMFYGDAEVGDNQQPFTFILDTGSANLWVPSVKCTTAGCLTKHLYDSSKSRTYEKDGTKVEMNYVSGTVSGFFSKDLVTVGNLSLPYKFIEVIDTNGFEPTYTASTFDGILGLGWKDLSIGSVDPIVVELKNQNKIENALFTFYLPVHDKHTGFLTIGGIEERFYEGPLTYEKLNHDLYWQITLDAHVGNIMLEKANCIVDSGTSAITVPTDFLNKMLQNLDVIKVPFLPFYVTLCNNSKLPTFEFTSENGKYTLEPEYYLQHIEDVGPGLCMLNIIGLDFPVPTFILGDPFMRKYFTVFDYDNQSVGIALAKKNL

Row | Structure (SMILES) | IC50 (plasmepsin II) [nM] | IC50 (plasmepsin IV) [nM]
1 | CCCCCc1ccc(C(=O)N(Cc2ccc(-c3ccc(C(=O)N4CCCCC4)cc3)cc2)C2CCN(CCC(C)C)CC2)s1 [Example 88] | 77 | –
2 | CCCCCc1ccc(C(=O)N(Cc2ccc(-c3cccc(C)c3)cc2)C2CCN(CCC(C)C)CC2)nc1 [Example 166, 5-Pentyl-pyridine-2-carboxylic acid (3′-methyl-biphenyl-4-ylmethyl)-[1-(3-methyl-butyl)-piperidin-4-yl]-amide] | 16 | 22
3 | CCCCCc1ccc(C(=O)N(Cc2ccc(-c3ccc(Cl)c(Cl)c3)o2)C2CCN(CCC(C)C)CC2)cc1 [Example 220, N-[5-(3,4-dichloro-phenyl)-furan-2-ylmethyl]-N-[1-(3-methyl-butyl)-piperidin-4-yl]-4-pentyl-benzamide] | 41 | 56
4 | CCCCCc1ccc(C(=O)N(Cc2ccc(C(=O)NCc3c(F)cccc3F)cc2)C2CCN(CCC(C)C)CC2)nc1 [Example 223, 5-Pentyl-pyridine-2-carboxylic acid [4-(2,6-difluoro-benzylcarbamoyl)-benzyl]-[1-(3-methyl-butyl)-piperidin-4-yl]-amide] | 40 | 1110

Further compounds by falling IC50 (plasmepsin II), results first:

Row | IC50 (plasmepsin II) [nM] | IC50 (plasmepsin IV) [nM] | Structure (SMILES)
5 | 51 | 359 | CCCCCc1ccc(C(=O)N(Cc2ccc(N3CCSCC3)nc2)C2CCN(CCC(C)C)CC2)nc1 [Example 226]
6 | 10 | 635 | CCCCCc1ccc(C(=O)N(Cc2ccc(-c3ccc(C(=O)N4CCCCC4)cc3)cc2)C2CCN(CCC(C)C)CC2)nc1 [Example 163]
